# Test results: publication PMC6207618, “The GbsR Family of Transcriptional Regulators: Functional Characterization of the OpuAR Repressor” (Frontiers in Microbiology, 2018)
# “Also recorded” adds a separate entry of the source.
# Tested on: B. infantis OpuA transporter
# Experiment: Osmostress protection growth assay, B. infantis opuA operon expressed in B. subtilis strain CAB2
# Assay type: cell-based, Bacillus infantis
# Settings: for Osmostress protection (growth yield OD578): B. subtilis CAB2, SMM with 1.2 M NaCl, 1 mM osmostress protectant, 18 h, 37°C; for Substrate of / import via the B. infantis OpuA transporter: inferred from osmostress protection of B. subtilis CAB2, 1.2 M NaCl, 1 mM
# Protocol: Bacterial strains were propagated in Luria–Bertani (LB) liquid media at 37°C or plated on LB agar plates. The B. infantis strain NRRL B-14911 was grown in MOPS-buffered basal medium [50 mM MOPS (pH 7.5), 50 mM MgSO4, 10 mM KCl, 10 mM CaCl2, 190 mM NH4Cl, 0.33 mM K2HPO4, 0.1 mM FeSO4] supplemented with 0.5% glucose (wt/vol) as a carbon source, 0.4% casamino acids (wt/vol), 5 ml l^-1 vitamin solution A (7.8 mg l^-1 biotin, 15.6 mg l^-1 nicotinic acid, and 15.6 mg l^-1 lipoic acid; pH adjusted to 7.5), and 5 ml l^-1 vitamin solution B (15.6 mg l^-1 pantothenic acid, 15.6 mg l^-1 pyridoxine-HCl, 15.6 mg l^-1 thiamine, 15.6 mg l^-1 p-aminobenzoic acid, and 0.32 mg l^-1 cobalamin) ([Gonzalez et al., 1997]). In main cultures used for osmostress protection assays, casamino acids were left out from the growth medium. The osmolarity of growth media was adjusted by the addition of NaCl from a 5 M NaCl stock solution. If desired, osmostress protectants were added to the medium of B. infantis NRRL B-14911 cultures at a final concentration of 1 mM. For growth experiments, liquid cultures of B. infantis NRRL B-14911 were grown in 100-ml Erlenmeyer flasks containing 20-ml of medium in a water bath set to 37°C with vigorous shaking (set to 220 rpm). Pre-cultures of strains were propagated to mid-exponential growth phase in basal medium (with 0.4% casamino acids) and were then used to inoculate fresh basal medium (without casamino acids) to an optical density at 578 nm (OD578) of 0.1. Liquid cultures of B. subtilis strains were grown at 37°C in Spizizen’s minimal medium (SMM) ([Harwood and Archibald, 1990]) with 0.5% glucose as carbon source and a solution of trace elements ([Harwood and Cutting, 1990]). L-Tryptophan (20 mg l^-1) and L-phenylalanine (18 mg l^-1) were added to SMM-derived growth media to satisfy the auxotrophic needs of the B. subtilis strain JH642 (trpC2 pheA1) ([Smith et al., 2014]) and its derivatives (Supplementary Table S1). Cultures (20-ml in 100-ml Erlenmeyer flasks) of B. subtilis strains were inoculated from exponentially growing pre-cultures in SMM to an OD578 of 0.1 and were incubated in a shaking water bath (set to 220 rpm) at 37°C. If needed, the osmolarity of the growth medium was increased by the addition of NaCl (from 5 M stock solutions prepared in H2O). Compatible solutes were filter sterilized and added to the growth medium of B. subtilis strains from 100 mM stock solutions to a final concentration of 1 mM unless otherwise explicitly stated in the text.
# For the heterologous expression of the B. infantis NRRL B-14911 opuA operon (opuAA-opuAB-opuAC) in B. subtilis, a 3826-bp DNA fragment including the coding region of the opuA operon and the adjacent opuAR regulatory gene was generated by PCR using primers CA3-opuARA fwd and CA3-opuARA rev (Supplementary Table S2). […] Plasmid pX and its recombinant derivatives allow the stable insertion of genes into the B. subtilis chromosome as a single copy into the non-essential amyE locus via a double homologous recombination event via amyE sequences present on both the plasmid and the chromosome ([Kim et al., 1996]). Insertion of plasmid pX, or its recombinant derivatives, into the B. subtilis chromosome at the amyE gene can be selected for on agar plates containing the antibiotic chloramphenicol (final concentration: 5 μg ml^-1) and the subsequently scoring of the AmyE negative phenotype of the strains on LB plates containing 1% starch ([Harwood and Cutting, 1990]). Linearized plasmid DNA of pCA-opuARA was used to transform the B. subtilis chassis strain TMB118 [Δ(opuA::tet)3 Δ(opuC::spc)3 Δ(opuD::neo)2 Δ(opuB::erm)3] ([Teichmann et al., 2017]) in which only the proline-specific osmostress OpuE transporter ([von Blohn et al., 1997]) is present. The resulting strain was CAB2 (Supplementary Table S1). B. subtilis mutants carrying chromosomal deletions of the yvaV and opcR genes were constructed using long-flanking region PCR ([Kuwayama et al., 2002]).
Compound,Osmostress protection (growth yield OD578),Substrate of / import via the B. infantis OpuA transporter
"CN(C)CC(=O)O [DMG, dimethlyglycine]",at a reduced level,
"C[S+](C)CCC(=O)[O-] [DMSP, dimethylsulfoniopropionate]",protected,good substrate
C[N+](C)(C)CCO [choline],,not imported; also recorded: not a substrate
C[N+](C)(C)CC(=O)[O-] [glycine betaine],protected,major substrates
C[N+](C)(C)CCC(=O)[O-] [homobetaine],protected,
C[N+]1(C)CCC[C@H]1C(=O)[O-] [proline betaine],protected,major substrates
